The structures appear in SMILES notation.

As usually defined, the EC50 is the midpoint of the concentration-response curve. Low values mean an effect from little substance, high ones a need for much substance.

This test has as its system mutant HTT protein (mHTT). Briefly: Homogeneous Time Resolved Fluorescence (HTRF) assay for HTT lowering. The test is classed as cell-based. Conditions: reduction of mHTT in Huntington patient human cells (GENEAe020-A cell line), 48 hours incubation, mean from three replicates. How it is done: Homogeneous Time Resolved Fluorescence for HTT Lowering
The HTRF assay was adapted from Weiss et al. (Analytical Biochemistry Volume 395, Issue 1, 1 Dec. 2009, Pages 8-15 and Analytical Biochemistry Volume 410, 2011, Pages 304-306) to cells from GENEAe020-A cell line (https.//hpscreg.eu/cell-line/GENEAe020-A).
Compounds were tested for the effect of mutant HTT levels in Huntington patient human cells (GENEAe020-A cell line) using Homogeneous Time Resolved Fluorescence (HTRF) directed towards mutant HTT protein (mHTT). The GENEAe020-A cell line was derived by Genea Biocells from human blastocysts of HD donors. After assessing viability, cells were plated into 384 well collagen coated plates in growth media. Once cells adhered, media was removed and test compounds dissolved in DMSO were diluted with buffer solution and added to the adherent cells. Controls included experiments with no cells, DMSO with no compound, and Hsp90 inhibitor control. Cells were incubated with compounds and controls for 48 hours. Then, the cells were lysed and transferred to an assay plate containing HTRF labeled monoclonal antibodies developed by Paul Patterson (Ko et al., Brain Research Bulletin, Volume 56, Numbers 3 and 4, 2001, Pages 319-329) which recognize specific areas of the HTT protein. The terbium labeled “donor” antibody (2B7) binds to the N-terminus of the HTT protein and the Alexa488 labeled “acceptor” antibody (MW1) is specific for the polyglutamine region of the protein. Binding of the acceptor labeled antibody is more efficient for the extended polyglutamine repeats of mutant HTT protein which translates into a signal boost which enables the specific measurement of mutant HTT protein level. The HTRF donor and acceptor detection reagents were incubated with the cell lysate and the ratio between the signals of the two fluorophores is indicative of the relative quantities of mHTT.
A general note: TR-FRET usually uses a lanthanide donor and a delayed reading to cut background.
With `Cc1cn2nc(-c3cc(=O)n4cc(C5CCNC6(CC6)C5)ccc4n3)cc(C)c2n1` (racemic) [Example 1, rac-7-(4-azaspiro[2.5]octan-7-yl)-2-(2,8-dimethylimidazo[1,2-b]pyridazin-6-yl)pyrido[1,2-a]pyrimidin-4-one], the EC50 was 31 nM.
Take `COc1cc(-c2cc(=O)n3cc(C4CCNC5(CC5)C4)ccc3n2)nn2cc(C)nc12` (racemic) [Example 2, rac-7-(4-azaspiro[2.5]octan-7-yl)-2-(8-methoxy-2-methyl-imidazo[1,2-b]pyridazin-6-yl)pyrido[1,2-a]pyrimidin-4-one]: the EC50 turned out to be 21 nM.
`Cc1cn2nc(-c3cc(=O)n4cc(C5CCNC6(CC6)C5)ccc4n3)cc(C(F)(F)F)c2n1` (racemic) [Example 3, rac-7-(4-azaspiro[2.5]octan-7-yl)-2-[2-methyl-8-(trifluoromethyl)imidazo[1,2-b]pyridazin-6-yl]pyrido[1,2-a]pyrimidin-4-one]: the EC50 was 40 nM.
Under `Cc1nc2c(C)cc(-c3cc(=O)n4cc(C5CCNC6(CC6)C5)ccc4n3)nc2o1` (racemic) [Example 4, rac-7-(4-azaspiro[2.5]octan-7-yl)-2-(2,7-dimethyloxazolo[5,4-b]pyridin-5-yl)pyrido[1,2-a]pyrimidin-4-one] stands 49 nM; under `O=c1cc(-c2ccc3nc(Cl)cn3n2)nc2ccc(C3CCNC4(CC4)C3)cn12` (racemic) [Example 5, rac-7-(4-azaspiro[2.5]octan-7-yl)-2-(2-chloroimidazo[1,2-b]pyridazin-6-yl)pyrido[1,2-a]pyrimidin-4-one], 259 nM.

The values above are taken from patent US20250179092A1, “PYRIDO[1,2-A]PYRIMIDIN-4-ONE DERIVATIVES” (Hoffmann-La Roche Inc., priority 2022, published 2025).
